Broadly, the IC50 is the concentration that inhibits the measured activity by half.

This is an account of results in ChEMBL document CHEMBL3400010, “Cytotoxic and antioxidant constituents from the leaves of Psidium guajava” (Bioorg Med Chem Lett, 2015).

A short description of data set [1]: Cytotoxicity against human SGC7901 cells by MTT assay. The class given is functional, cell-based. The settings on record: SGC-7901. (Formazan colour is commonly taken as a measure of viable cells.)
A short description of data set [2]: Antioxidant activity assessed as DPPH radical scavenging activity after 30 mins by microplate reader based assay. The class given is physicochemical. (In general: Loss of DPPH colour is used to gauge radical scavenging.)
Data set [3] concerns A549. The experiment in a line: Cytotoxicity against human A549 cells by MTT assay. The class given is functional, cell-based.
Data set [4] relates to HeLa. As to the kind of experiment: Cytotoxicity against human HeLa cells by MTT assay. It counts as functional, cell-based.
Data set [5] in a line: Antioxidant activity assessed as ABTS radical scavenging activity after 15 mins. It counts as physicochemical.
Data set [6] in a line: Antioxidant activity assessed as FRAP values at 100 ug/ml incubated at 37 degC for 5 mins by FeSO4.7H2O calibration curve based method. The class given is physicochemical.
Data set [7] is described as follows: Antioxidant activity assessed as FRAP values at 12.5 ug/ml incubated at 37 degC for 5 mins by FeSO4.7H2O calibration curve based method. The class given is physicochemical.
A short description of data set [8]: Antioxidant activity assessed as FRAP values at 50 ug/ml incubated at 37 degC for 5 mins by FeSO4.7H2O calibration curve based method. The class given is physicochemical.
Data set [9] is described as follows: Antioxidant activity assessed as FRAP values at 25 ug/ml incubated at 37 degC for 5 mins by FeSO4.7H2O calibration curve based method. It counts as physicochemical.

Converted amounts (≈) assume the structure as drawn.

As for `Cc1c(O)cc(O[C@@H]2O[C@H](CO)[C@@H](O)[C@H](O)[C@H]2O)c(C(=O)c2ccccc2)c1O`, the half-inhibitory concentration (IC50) in [1] was above 10 µg/mL; in data set [2], above 100 µg/mL; in data set [3] it was above 10 µg/mL; in [4], above 10 µg/mL; in data set [5], 29.27 µg/mL (≈ 72 µM).

Regarding `COc1cccc2c1C(=O)c1c(O)c3c(c(O)c1C2=O)C[C@@](O)(C(=O)CO)C[C@@H]3O[C@H]1C[C@H](N)[C@H](O)[C@H](C)O1` [DOXORUBICIN], the half-inhibitory concentration (IC50) is 1.36 µg/mL (≈ 2.5 µM) in data set [1], 3.12 µg/mL (≈ 5.74 µM) in [3] and 2.68 µg/mL (≈ 4.94 µM) in data set [4].

With `O=c1c(O[C@@H]2O[C@@H](CO)[C@H](O)[C@H]2O)c(-c2ccc(O)c(O)c2)oc2cc(O)cc(O)c12` [AVICULARIN], the Activity in data set [6] amounted to 324.58 µmol/L; in [7] it was 123.88 µmol/L; in data set [8], 291.63 µmol/L; in data set [9], 269 µmol/L. Moreover, the IC50 is above 10 µg/mL in data set [1]; 16.13 µg/mL (≈ 37.1 µM) in data set [2]; above 10 µg/mL in data set [3]; above 10 µg/mL in data set [4]; 6.9 µg/mL (≈ 15.9 µM) in [5].

On to `O=C(OC[C@H]1O[C@@H](Oc2cc(O)c(C(=O)c3ccccc3)c(O)c2)[C@H](O)[C@@H](O)[C@@H]1O)c1cc(O)c(O)c(O)c1`, for which the Activity in [6] is 174.6 µmol/L; in [7] it was 18.46 µmol/L; in data set [8], 131.03 µmol/L; in [9], 53.29 µmol/L. For the same compound, the IC50 was above 10 µg/mL in data set [1]; 37.93 µg/mL (≈ 69.7 µM) in data set [2]; above 10 µg/mL in [3]; above 10 µg/mL in data set [4]; 13.63 µg/mL (≈ 25 µM) in [5].

Turning to `O=C1O[C@H]([C@@H](O)CO)C(O)=C1O` [ASCORBIC ACID], the Activity in [6] came to 442.43 µmol/L; in data set [7], 149.97 µmol/L; in data set [8], 396.76 µmol/L; in [9] it was 292.1 µmol/L. In addition, the half-maximal inhibitory concentration (IC50) in data set [2] was determined as 16.3 µg/mL (≈ 92.5 µM); in [5] it was 8.53 µg/mL (≈ 48.4 µM).

For `O=c1c(O[C@@H]2OC[C@H](O)[C@H](O)[C@H]2O)c(-c2ccc(O)c(O)c2)oc2cc(O)cc(O)c12` [GUAJAVERIN], the Activity in data set [6] is 346.45 µmol/L; in data set [7], 57.21 µmol/L; in [8], 220.51 µmol/L; in data set [9], 175.59 µmol/L. The IC50 in data set [1] was above 10 µg/mL; in data set [2] it was 13.43 µg/mL (≈ 30.9 µM); in data set [3] it was above 10 µg/mL; in data set [4] it was above 10 µg/mL; in data set [5], 6.7 µg/mL (≈ 15.4 µM).

Regarding `O=c1c(O)c(-c2ccc(O)c(O)c2)oc2cc(O)cc(O)c12` [QUERCETIN], the Activity in data set [6] was found to be 401.27 µmol/L; in [7] it was 333.26 µmol/L; in [8] it was 379.4 µmol/L; in data set [9], 359.18 µmol/L. Also, the 50% inhibitory concentration (IC50) is 7.88 µg/mL (≈ 26.1 µM) in data set [1]; 11 µg/mL (≈ 36.4 µM) in data set [2]; above 10 µg/mL in [3]; 8.26 µg/mL (≈ 27.3 µM) in data set [4]; 4.4 µg/mL (≈ 14.6 µM) in data set [5].

Take `O=c1c(O[C@@H]2O[C@H](CO)[C@H](O)[C@H](O)[C@H]2O)c(-c2ccc(O)c(O)c2)oc2cc(O)cc(O)c12` [HYPEROSIDE]: the Activity in [6] is 329.68 µmol/L; in [7], 68.06 µmol/L; in [8], 287.94 µmol/L; in [9] it was 155.89 µmol/L. The concentration for half-maximal inhibition (IC50) in data set [1] is above 10 µg/mL; in data set [2], 27.03 µg/mL (≈ 58.2 µM); in [3] it was above 10 µg/mL; in data set [4], above 10 µg/mL; in data set [5] it was 10.57 µg/mL (≈ 22.8 µM).

Turning to `Cc1c(O)c(C)c(O[C@@H]2O[C@H](CO)[C@@H](O)[C@H](O)[C@H]2O)c(C(=O)c2ccccc2)c1O`, the Activity in data set [6] stood at 46.37 µmol/L; in data set [7], 11.54 µmol/L; in [8], 23.73 µmol/L; in data set [9] it was 14 µmol/L. For the same compound, the IC50 in data set [1] was above 10 µg/mL; in data set [2], above 100 µg/mL; in [3], above 10 µg/mL; in data set [4] it was above 10 µg/mL; in data set [5], 32.97 µg/mL (≈ 78.4 µM).

As for `Cc1c(O)c(C(=O)c2ccccc2)c(O)c(C)c1O[C@@H]1O[C@H](COC(=O)c2cc(O)c(O)c(O)c2)[C@@H](O)[C@H](O)[C@H]1O`, the Activity in data set [6] turned out to be 341.94 µmol/L; in data set [7] it was 48.3 µmol/L; in data set [8], 185.03 µmol/L; in data set [9], 90.63 µmol/L. Also, the IC50 in data set [1] was above 10 µg/mL; in [2] it was 28.33 µg/mL (≈ 49.5 µM); in [3] it was above 10 µg/mL; in data set [4], above 10 µg/mL; in [5], 8.3 µg/mL (≈ 14.5 µM).

Turning to `O=C(OC[C@H]1O[C@@H](Oc2cc(-c3ccccc3)oc(=O)c2)[C@H](O)[C@@H](O)[C@@H]1O)c1cc(O)c(O)c(O)c1`, the Activity in data set [6] worked out at 386.38 µmol/L; in [7] it was 91.28 µmol/L; in data set [8] it was 250.53 µmol/L; in [9] it was 143.76 µmol/L. Further, the IC50 in data set [1] was 4.28 µg/mL (≈ 8.51 µM); in data set [2], 13.07 µg/mL (≈ 26 µM); in data set [3], 7.29 µg/mL (≈ 14.5 µM); in data set [4] it was 3.25 µg/mL (≈ 6.46 µM); in [5], 5.47 µg/mL (≈ 10.9 µM).

As for `C/C(=C/O[C@@H]1O[C@H](COC(=O)c2cc(O)c(O)c(O)c2)[C@@H](O)[C@H](O)[C@H]1O)C(=O)O`, the Activity worked out at 413.94 µmol/L in data set [6], 70.64 µmol/L in data set [7], 263.31 µmol/L in data set [8] and 152.02 µmol/L in data set [9]. The IC50 came to 3.73 µg/mL (≈ 8.96 µM) in data set [1]; 13.1 µg/mL (≈ 31.5 µM) in data set [2]; 7.01 µg/mL (≈ 16.8 µM) in data set [3]; 3.51 µg/mL (≈ 8.44 µM) in data set [4]; 5.93 µg/mL (≈ 14.2 µM) in data set [5].
